Counter-ions that a name gives are not always drawn.

For one experiment, the target named is T1, human TLR3 (hTLR3) (Homo sapiens, UniProt O15455).
T1 construct: expressed in transfected cells
T1 sequence (O15455 24-904): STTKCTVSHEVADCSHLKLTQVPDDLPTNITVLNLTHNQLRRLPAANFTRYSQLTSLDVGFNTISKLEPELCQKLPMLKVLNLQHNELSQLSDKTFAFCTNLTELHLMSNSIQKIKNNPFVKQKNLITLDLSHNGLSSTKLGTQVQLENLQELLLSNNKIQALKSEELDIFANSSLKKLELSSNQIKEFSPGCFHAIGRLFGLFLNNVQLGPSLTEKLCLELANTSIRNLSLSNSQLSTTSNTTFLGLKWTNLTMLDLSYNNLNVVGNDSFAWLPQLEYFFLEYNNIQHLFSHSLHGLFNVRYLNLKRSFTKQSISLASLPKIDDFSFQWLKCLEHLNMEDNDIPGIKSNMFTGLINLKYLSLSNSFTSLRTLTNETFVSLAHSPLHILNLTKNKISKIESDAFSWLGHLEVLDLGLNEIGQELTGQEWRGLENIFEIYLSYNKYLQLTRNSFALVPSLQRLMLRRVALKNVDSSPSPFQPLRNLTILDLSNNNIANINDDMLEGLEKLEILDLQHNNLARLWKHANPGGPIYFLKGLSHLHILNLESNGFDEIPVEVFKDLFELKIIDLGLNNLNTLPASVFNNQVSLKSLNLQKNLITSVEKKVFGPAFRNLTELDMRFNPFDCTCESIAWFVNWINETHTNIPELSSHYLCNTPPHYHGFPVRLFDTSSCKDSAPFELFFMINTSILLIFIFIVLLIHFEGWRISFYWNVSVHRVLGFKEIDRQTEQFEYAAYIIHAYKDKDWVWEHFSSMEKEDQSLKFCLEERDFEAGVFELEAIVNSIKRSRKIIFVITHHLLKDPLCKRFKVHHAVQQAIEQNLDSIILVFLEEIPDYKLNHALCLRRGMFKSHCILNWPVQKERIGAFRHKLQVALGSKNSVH
The experiment can be described thus: Antagonist screen, hTLR3-NFκB-293 cells, NF-κB-luciferase reporter, with EC50 of poly(I:C). The experiment is classed as cell-based. As to conditions: compound at 0.5, 5, 50 μg/ml; EC50 concentration of poly(I:C); 16 h; NF-κB-luciferase. The method in brief: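 Scores reflect clear reduction of NF-κB-luciferase signal versus baseline fold induction from EC50 poly(I:C) alone. Compounds tested in duplicate at three final concentrations (0.5, 5, 50 μg/ml) with ligand for 16 h stimulation of hTLR3-NFκB-293 cells plated overnight at 1.5×10^4 per well.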
For the compound `COc1cc2nc(N3CCN(C(=O)C4COc5ccccc5O4)CC3)nc(N)c2cc1OC.CS(=O)(=O)O` (stereo not shown) [compound 858, Doxazosin mesylate], the “hTLR3 (inhibitory effect, antagonist score)” value is recorded as “— (compounds for which there was no clear down regulation even at 50 μg/ml)”. Regarding `COc1cc2nc(N3CCN(C(=O)C4CCCO4)CC3)nc(N)c2cc1OC.Cl` (stereo not shown) [compound 751, Terazosin hydrochloride], the “hTLR3 (inhibitory effect, antagonist score)” value was “— (compounds for which there was no clear down regulation even at 50 μg/ml)”. Consider `CCN(CC)CCCNc1nc(-c2ccccc2)nc2ccccc12` [compound 2001], for which the “hTLR3 (inhibitory effect, antagonist score)” value is on record as 11 (compounds for which there was clear down regulation only at 50 μg/ml). Still for that read-out and setting: to `CN(C)C(=O)C(CCN1CCC(O)(c2ccc(Cl)cc2)CC1)(c1ccccc1)c1ccccc1` [compound 144, Loperamidehydrochloride] belongs 11 (compounds for which there was clear down regulation only at 50 μg/ml); to `CC(C)(C)c1ccc(C(O)CCCN2CCC(C(O)(c3ccccc3)c3ccccc3)CC2)cc1` (stereo not shown) [compound 138, Terfenadine], 11 (compounds for which there was clear down regulation only at 50 μg/ml); to `COc1cc2c(cc1O)C[C@H]1c3c(cc(O)c(OC)c3-2)CCN1C` [compound 600, Boldine], “— (compounds for which there was no clear down regulation even at 50 μg/ml)”.

In the case of `CN1CCc2cc3c(c4c2C1Cc1ccccc1-4)OCO3.Cl` (stereo not shown) [compound 669, Remerine hydrochloride], the “hTLR3 (inhibitory effect, antagonist score)” value is “— (compounds for which there was no clear down regulation even at 50 μg/ml)”. Turning to `CCN(CC)CCCC(C)Nc1nc(/C=C/c2ccc(Cl)cc2)nc2cc3ccccc3cc12` (stereo not shown) [compound 2000], the “hTLR3 (inhibitory effect, antagonist score)” value is 12 (compounds for which there was clear down regulation at 5 μg/ml and 50 μg/ml). `CN1CCc2cccc3c2[C@H]1Cc1ccc(O)c(O)c1-3.Cl` [compound 101, Apomorphinehydrochloride (R, —)]: the “hTLR3 (inhibitory effect, antagonist score)” value was “— (compounds for which there was no clear down regulation even at 50 μg/ml)”.

The experiment is the same for the next values; noted with them: hTLR3-NFκB-293 cells, with EC50 of poly(I:C); compound at 0.5, 5 and 50 μg/ml.
Regarding `CN1CCc2c1nc1ccccc1c2NC(=O)CN1CCCCCC1` [compound 1003], the “hTLR3 (inhibitory effect)” value is given as 11 (compounds for which there was clear down regulation only at 50 μg/ml). In the case of `Nc1c2c(nc3ccccc13)N(Cc1ccccc1)CC2` [compound 1217, 1-Benzyl-2,3-dihydro-1H-pyrrolo[2,3-b]quinolin-4-ylamine], the “hTLR3 (inhibitory effect)” value is 12 (compounds for which there was clear down regulation at 5 μg/ml and 50 μg/ml).

Regarding `CCCCCCN(CCCCCC)CC(=O)Nc1c2c(nc3ccccc13)N(C)CC2` [compound 1224], the “hTLR3 (inhibitory effect)” value was 12 (compounds for which there was clear down regulation at 5 μg/ml and 50 μg/ml). The same measure, in the same setting: to `O=c1c2c(nc(NCCO)n1-c1ccccc1)-c1ccccc1CC21CCCC1` [compound 891] belongs 11 (compounds for which there was clear down regulation only at 50 μg/ml). The same measure, in the same setting: as for `CCCCCCCCCCCC(=O)Nc1c2c(nc3ccccc13)N(C)CC2` [compound 1334], the entry is “— (compounds for which there was no clear down regulation even at 50 μg/ml)”; as for `COc1cc2cc3c4cc(OC)c(OC)cc4cc[n+]3c(C)c2cc1OC` [compound 431, Coralyne chloridehydrate], “— (compounds for which there was no clear down regulation even at 50 μg/ml)”. As to `O=C1c2ccc(Oc3ccc(S(=O)(=O)c4ccc(Oc5ccc6c(c5)C(=O)N(c5ccccn5)C6=O)cc4)cc3)cc2C(=O)N1c1ccccn1` [compound 1367], the “hTLR3 (inhibitory effect)” value is 12 (compounds for which there was clear down regulation at 5 μg/ml and 50 μg/ml).

Take `CN1CCc2c1nc1ccc(Br)cc1c2N` [compound 1142, 6-Bromo-1-methyl-2,3-dihydro-1H-pyrrolo[2,3-b]quinolin-4-ylamine]: the “hTLR3 (inhibitory effect)” value was 11 (compounds for which there was clear down regulation only at 50 μg/ml). Still for that read-out and setting: to `CN(C)CCN(Cc1ccc(Cl)cc1)c1ccccn1.Cl` [compound 807, Chloro-pyraminehydrochloride] belongs “— (compounds for which there was no clear down regulation even at 50 μg/ml)”; to `CCOc1ccc(Cc2nccc3cc(OCC)c(OCC)cc23)cc1OCC.Cl` [compound 830, Ethaverinehydrochloride], “— (compounds for which there was no clear down regulation even at 50 μg/ml)”. On to `Cc1ccc(-n2c(NCCO)nc3c(c2=O)C2(CCCCC2)Cc2ccccc2-3)cc1` [compound 1137], for which the “hTLR3 (inhibitory effect)” value is 13 (compounds for which there was clear down regulation at 0.5 μg/ml, 5 μg/ml, and 50 μg/ml). Same read-out and setting: as for `CC[N+](C)(CC)CCC[n+]1c(-c2ccccc2)c2cc(N)ccc2c2ccc(N)cc21.[I-].[I-]` [compound 792, Propidium iodide], the figure is 12 (compounds for which there was clear down regulation at 5 μg/ml and 50 μg/ml); as for `O=C1c2ccc(S(=O)(=O)c3ccc4c(c3)C(=O)N(c3ccccn3)C4=O)cc2C(=O)N1c1ccccn1` [compound 1163], 11 (compounds for which there was clear down regulation only at 50 μg/ml); as for `CN1CCc2c1nc1ccccc1c2NC(=O)CN1CCN(c2ccccc2)CC1` [compound 1212], “— (compounds for which there was no clear down regulation even at 50 μg/ml)”. Still for that read-out and setting: to `Cc1ccc2nc3c(c(N)c2c1)CCN3C` [compound 1091, 1,6-Dimethyl-2,3-dihydro-1H-pyrrolo[2,3-b]quinolin-4-ylamine] belongs 11 (compounds for which there was clear down regulation only at 50 μg/ml).

Turning to `CN1CCCCc2c1nc1ccccc1c2N` [compound 1185, 1-Methyl-2,3,4,5-tetrahydro-1H-azepino[2,3-b]quinolin-6-ylamine], the “hTLR3 (inhibitory effect)” value is “— (compounds for which there was no clear down regulation even at 50 μg/ml)”.

As for `NNc1nc2c(c(=O)n1-c1ccccc1)C1(CCCC1)Cc1ccccc1-2` [compound 1320], the “hTLR3 (inhibitory effect)” value is “— (compounds for which there was no clear down regulation even at 50 μg/ml)”. With `O=c1c2c(nc(NCCO)n1Cc1ccccc1)-c1ccccc1CC21CCCC1` [compound 926], the “hTLR3 (inhibitory effect)” value was 12 (compounds for which there was clear down regulation at 5 μg/ml and 50 μg/ml). `NNc1nc2c(c(=O)n1C1CCCC1)C1(CCCC1)Cc1ccccc1-2` [compound 1248]: the “hTLR3 (inhibitory effect)” value was “— (compounds for which there was no clear down regulation even at 50 μg/ml)”. The same measure, in the same setting: to `O=C(CN1CCCC1)Nc1c2c(nc3ccccc13)N(c1ccccc1)CC2` [compound 1244] belongs 11 (compounds for which there was clear down regulation only at 50 μg/ml); to `CN1CCc2c1nc1ccccc1c2N` [compound 990, 1-Methyl-2,3-dihydro-1H-pyrrolo[2,3-b]quinolin-4-ylamine], “— (compounds for which there was no clear down regulation even at 50 μg/ml)”.

In the case of `COc1ccc2cc3[n+](cc2c1OC)CCc1cc2c(cc1-3)OCO2.[Cl-]` [compound 586, Berberine chloride], the “hTLR3 (inhibitory effect)” value is recorded as 11 (compounds for which there was clear down regulation only at 50 μg/ml). Same read-out and setting: as for `O=c1[nH]c(NCCO)nc2c1C1(CCCC1)Cc1ccccc1-2` [compound 1322], the figure is 11 (compounds for which there was clear down regulation only at 50 μg/ml); as for `Cn1c(NN)nc2c(c1=O)C1(CCCC1)Cc1ccccc1-2` [compound 1213], “— (compounds for which there was no clear down regulation even at 50 μg/ml)”. The same measure, in the same setting: to `COc1ccc(Cc2nccc3cc(OC)c(OC)cc23)cc1OC.Cl` [compound 583, Papaverinehydrochloride] belongs “— (compounds for which there was no clear down regulation even at 50 μg/ml)”.

Values taken from patent US7410975B2, “Small molecule toll-like receptor (TLR) antagonists” (Coley Pharmaceutical Group, Inc., priority 2003, dated 2008).
